Assay results taken from US8268961B2, “Antibacterial peptides and analogues thereof” (Universita Degli Studi di Siena, priority 2004, dated 2012).
Like-named read-outs stand apart in the source and are kept apart here. Positions of bridges follow the written chain, without caps; N, C: chain ends. Chains are numbered I, II in the order given. No end group written: not given here.

Tests used:
[1] = tested on: Acinetobacter baumannii AB1MG; format: cell-based
How it was run: (§1)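 MIC, given in molar units, was taken as the lowest concentration without visible growth after 24 h at 37° C. Testing followed the NCCLS microdilution method using cation-supplemented Mueller-Hinton broth and 5×10^4 CFU per well.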

[2] = tested on: Acinetobacter baumannii AB7MG; format: cell-based
How it was run: as §1

[3] = tested on: Burkholderia cepacia SMC71; format: cell-based
How it was run: as §1

[4] = tested on: Citrobacter freundii W99FI00007; format: cell-based
How it was run: as §1

[5] = tested on: Enterobacter aerogenes W03BG0067; format: cell-based
How it was run: as §1

[6] = tested on: Enterobacter cloacae W03AN0041; format: cell-based
How it was run: as §1

[7] = tested on: Escherichia coli ATCC 25922; format: cell-based; settings: ATCC 25922
How it was run: as §1

[8] = tested on: Escherichia coli W03BG0025; format: cell-based
How it was run: as §1

[9] = tested on: Escherichia coli W03NO0013; format: cell-based
How it was run: as §1

[10] = tested on: Escherichia coli W99FI0077; format: cell-based; settings: W99FI0077
How it was run: as §1

[11] = tested on: Klebsiella oxytoca W99FI00049; format: cell-based
How it was run: as §1

[12] = tested on: Klebsiella pneumoniae W03BG0019; format: cell-based
How it was run: as §1

[13] = tested on: Klebsiella pneumoniae W03NO0078; format: cell-based
How it was run: as §1

[14] = tested on: Klebsiella pneumoniae W99FI0057; format: cell-based; settings: W99FI0057
How it was run: as §1

[15] = tested on: Proteus mirabilis W03VA1144; format: cell-based
How it was run: as §1

[16] = tested on: Pseudomonas aeruginosa 885149; format: cell-based; settings: 885149
How it was run: as §1

[17] = tested on: Pseudomonas aeruginosa 891; format: cell-based; settings: 891
How it was run: as §1

[18] = tested on: Pseudomonas aeruginosa ATCC27853; format: cell-based; settings: ATCC27853
How it was run: (§2)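 cation-suppl. MH broth, std microdilution (NCCLS); 5×10^4 CFU/well; 24 h, 37° C; visual read; MIC = lowest conc. with no visible growth, molar units.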

[19] = tested on: Pseudomonas aeruginosa VA463/98; format: cell-based
How it was run: as §1

[20] = tested on: Staphylococcus aureus ATCC 25923; format: cell-based; settings: Staphylococcus aureus ATCC 25923, reference strain
How it was run: as §2

[21] = tested on: Chryseobacterium meningosepticum CCUG4310; experiment: MIC, standard microdilution assay; format: cell-based; settings: Chryseobacterium meningosepticum CCUG4310, reference strain
Source text: (§3) MIC is defined as the lowest concentration, in an antibiotic dilution range, that inhibits visible bacterial growth. The importance of MIC sensitivity test is based on the principle that in vitro sensitivity provides a predictive indication of the in vivo efficacy of the antibiotic therapy. Values are expressed as molar concentration and compared to MIC values obtained with commercially available antibiotics such as amikacin, ceftriaxone and levofloxacin (Table 3).
(§4) Reference strains (Escherichia coli ATCC 25922, Pseudomonas aeruginosa ATCC 27853, Staphylococus aureus ATCC 25923 and Chryseobacterium meningosepticum CCUG 4310) and several recent clinical isolates (including multidrug-resistant ones) of various species (Table 2) were used for conventional susceptibility testing experiments. Minimum Inhibitory Concentration (MIC) was determined by a standard microdilution assay as recommended by the National Commitee for Clinical Laboratory Standards (NCCLS) using cation-supplemented Mueller-Hinton (MH) broth (Oxoid Ltd. Basingstoke, UK) and a bacterial inoculum of 5×10^4 CFU per well, in a final volume of 100 μl. Results were recorded by visual inspection after 24 h of incubation at 37° C.

[22] = tested on: Morganella morganii W03VA1342; experiment: MIC, standard microdilution assay; format: cell-based; settings: Morganella morganii W03VA1342, FQR ESCR (ESBL/CTX-M-1)
Source text: as §3, §4

[23] = tested on: Proteus mirabilis W99FI0089; experiment: MIC, standard microdilution assay; format: cell-based; settings: Proteus mirabilis W99FI0089, FQR
Source text: as §3, §4

[24] = tested on: Providencia stuartii W03FI0001; experiment: MIC, standard microdilution assay; format: cell-based; settings: Providencia stuartii W03FI0001, AGR ESCR (ESBL/PER-1)
Source text: as §3, §4

[25] = tested on: Serratia marcescens W99FI0111; experiment: MIC, standard microdilution assay; format: cell-based; settings: Serratia marcescens W99FI0111, FQR AGR ESCR (ESBL/SHV-5)
Source text: as §3, §4

[26] = tested on: Stenotrophomonas maltophilia PT4/99; experiment: MIC, standard microdilution assay; format: cell-based; settings: Stenotrophomonas maltophilia PT4/99, wild-type profile
Source text: as §3, §4

[27] = tested on: Staphylococus aureus MIU-68A; format: cell-based, Staphylococcus aureus
Source text: as §3, §4

[28] = tested on: E. coli ATCC 25922; experiment: Minimal bactericidal concentration (MBC); format: cell-based
Description: as §4
(§5) The MBC was determined as recommended by the National Committee for Clinical Laboratory Standards (NCCLS) on strains of E. coli ATCC 25922 and P. aeruginosa ATCC 27853.

[29] = tested on: P. aeruginosa ATCC 27853; experiment: Minimal bactericidal concentration (MBC); format: cell-based
Description: as §4, §5

[30] = tested on: Pichia pastoris yeast strain X33; experiment: Effect on Pichia pastoris yeast colonies; format: cell-based
Description: To a volume of 50 μl of culture of Pichia pastoris grown 24 hour at 30° C. in YPD (Yeast Extract/Peptone/Dextrose) medium, 50 μl of MAP peptides (2 mg/ml) were added and left in incubation 150 min at 37° C. Subsequently, 50 μl of each incubation were plated on YPD solid medium and it was allowed to grow for 48 hours at 30° C. The number of colonies grown was compared with a control, where the yeast was not treated with the MAP.

I: QKKIRVRLSAKKA-OH / II: QKKIRVRLSAK / III: QKKIRVRLSA / IV: QKKIRVRLSA (amide I:11-IV:C, I:12-II:C, II:11-III:C) [M6, QKKIRVRLSA]
MIC (Molarity) [1]: 3 µM | MIC (Molarity) [2]: 6 µM | MIC (Molarity) [3]: 12 µM | MIC (Molarity) [4]: 3 µM | MIC (Molarity) [5]: 1.5 µM | MIC (Molarity) [6]: 0.76 µM | MIC (Molarity) [7]: 1.5 µM | MIC (Molarity) [8]: 1.5 µM | MIC (Molarity) [9]: 1.5 µM | MIC (Molarity) [10]: 1.5 µM | MIC (Molarity) [11]: 12 µM | MIC (Molarity) [12]: 1.5 µM | MIC (Molarity) [13]: 3 µM | MIC (Molarity) [14]: 0.76 µM | MIC (Molarity) [15]: 12 µM | MIC (Molarity) [16]: 1.5 µM | MIC (Molarity) [17]: 1.5 µM | MIC (Molarity) [18]: 0.76 µM | MIC (Molarity) [19]: 0.76 µM | MIC (Molarity) [20]: >4.9e-05 M | MIC (Molarity) ([20]; listed as QKKIRVRLSA): ~10^−5 M | MIC (Molarity) [21]: >49 µM | MIC (Molarity) [22]: >49 µM | MIC (Molarity) [23]: >49 µM | MIC (Molarity) [24]: >49 µM | MIC (Molarity) [25]: >49 µM | MIC (Molarity) [26]: >49 µM | MIC (Molarity) [27]: 49 µM | MBC (minimal concentration able to kill 99.9% of the inoculum) compared with MIC [28]: equal to the calculated values of MIC | MBC (minimal concentration able to kill 99.9% of the inoculum) compared with MIC ([28]; listed as QKKIRVRLSA): equal to the corresponding MIC values | MBC (minimal concentration able to kill 99.9% of the inoculum) compared with MIC [29]: equal to the calculated values of MIC | MBC (minimal concentration able to kill 99.9% of the inoculum) compared with MIC ([29]; listed as QKKIRVRLSA): equal to the corresponding MIC values | Number of yeast colonies vs negative control [30]: did not differ from the negative control
